The values that follow come from patent US12479821B2 (MBD CO., LTD., priority 2019, dated 2025).

One may read the inhibition as how much of the control response was suppressed.

The assay addresses T1, CYP4A (Homo sapiens, UniProt Q02928).
T1 construct: host or cells: bactosome, i.e. bacterial membrane preparation (own knowledge of the term)
T1 sequence (Q02928 5-519): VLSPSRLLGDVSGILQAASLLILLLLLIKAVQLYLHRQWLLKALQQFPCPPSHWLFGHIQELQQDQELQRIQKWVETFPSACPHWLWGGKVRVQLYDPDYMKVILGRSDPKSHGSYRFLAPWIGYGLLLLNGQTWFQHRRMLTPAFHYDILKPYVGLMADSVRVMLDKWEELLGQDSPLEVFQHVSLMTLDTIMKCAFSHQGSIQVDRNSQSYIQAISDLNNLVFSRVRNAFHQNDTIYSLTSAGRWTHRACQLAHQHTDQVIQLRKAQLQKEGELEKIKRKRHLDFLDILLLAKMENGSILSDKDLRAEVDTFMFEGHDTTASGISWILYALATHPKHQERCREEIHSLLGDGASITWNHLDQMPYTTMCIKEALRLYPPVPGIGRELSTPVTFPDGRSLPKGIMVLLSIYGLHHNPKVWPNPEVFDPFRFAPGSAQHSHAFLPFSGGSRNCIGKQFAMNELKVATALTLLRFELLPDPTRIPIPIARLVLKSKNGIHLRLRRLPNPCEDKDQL
In words: CYP4A enzyme assay (Luciferin-ME luminescence, CYP4A bactosome). It counts as biochemical. Conditions: compound concentration 5 μM. On the procedure:
A commercially available reagent was used for the reagent used in the experiment, and it was manufactured and used if necessary. The device used for activity measurement was EnVision of PerkinElmer or SpectraMax of MOLECULAR DEVICES.
First, CYP4A bactosome and synthetic compound (5 μM) were mixed in assay buffer (100 mM KPO4, 0.1% BSA, 1 mM DTT) in a 384-well plate (white opaque ploystyrene nontreated flat-bottom well), and then reacted at room temperature for 15 minutes. After adding 5 mM Luciferin-ME and NADPH Regeneration system (10× sol.A, 20× sol.B in assay buffer, Cat. Number: V865B, Promega), leave it at room temperature for 30 minutes to allow the CYP4A reaction to occur sufficiently, by adding the Luciferin Detection reagent, the CYP4A reaction was finished, luminescence reaction was induced, and the reaction was carried out at room temperature for 15 minutes. The degree of inhibition of CYP4A activity was measured by comparing the luminescence values from each well with a microplate reader.

Where [1] appears, read: 75% or more, read-out: % Inhibition 75% or more.
Setting [2] is: '50%-75%', read-out: % Inhibition 50%-75%.
Where [3] appears, read: 25%-50%, read-out: % Inhibition 25%-50%.

Read-outs that look alike come from different tables or passages of the source.

Turning to `Cc1cc(N2CCN(C(=O)C3CCCN(S(=O)(=O)c4cccc([N+](=O)[O-])c4)C3)CC2)c2ccccc2n1` (stereo not drawn) [Formula 28, (4-(2-methylquinolin-4-yl)piperazin-1-yl) (1-(3-nitrophenylsulfonyl)piperidin-3-yl) methanone], under setting [1], the inhibition at 5 µM is no less than 75%. On to `COc1ccc(S(=O)(=O)N2CCCC(C(=O)N3CCN(c4cc(C)nc5ccccc45)CC3)C2)cc1` (stereo not drawn) [Formula 29, (1-(4-methoxyphenylsulfonyl)piperidin-3-yl) (4-(2-methylquinolin-4-yl)piperazin-1-yl)methanone], for which, under setting [2], the inhibition at 5 µM was 50 to 75%. With `Cc1cc(N2CCN(C(=O)C3CCCN(S(=O)(=O)c4c(F)c(F)c(F)c(F)c4F)C3)CC2)c2ccccc2n1` (stereo not drawn) [Formula 30, (4-(2-methylquinolin-4-yl)piperazin-1-yl) (1-(perfluorophenylsulfonyl)piperidin-3-yl) methanone], under setting [3], the inhibition at 5 µM was in the range of 25 to 50%. `Cc1cc(N2CCN(C(=O)C3CCCN(S(=O)(=O)c4ccc(N(C)C)cc4)C3)CC2)c2ccccc2n1` (stereo not drawn) [Formula 31, (1-(4-(dimethylamino)phenylsulfonyl)piperidin-3-yl) (4-(2-methylquinolin-4-yl)piperazin-1-yl) methanone]: the inhibition at 5 µM under setting [1] was no less than 75%. On the same count and under the same terms, to `Cc1cc(N2CCN(C(=O)C3CCCN(S(=O)(=O)c4ccc(O)cc4)C3)CC2)c2ccccc2n1` (stereo not drawn) [Formula 32, (1-(4-hydroxyphenylsulfonyl)piperidin-3-yl) (4-(2-methylquinolin-4-yl)piperazin-1-yl) methanone] belongs no less than 75%. For the compound `Cc1cc(N2CCN(C(=O)C3CCCN(S(=O)(=O)c4ccccc4F)C3)CC2)c2ccccc2n1` (stereo not drawn) [Formula 33, (1-(2-fluorophenylsulfonyl)piperidin-3-yl) (4-(2-methylquinolin-4-yl)piperazin-1-yl) methanone], the inhibition at 5 µM under setting [3] was 25 to 50%. Take `Cc1cc(N2CCN(C(=O)C3CCCN(S(=O)(=O)c4ccc(Oc5ccccc5)cc4)C3)CC2)c2ccccc2n1` (stereo not drawn) [Formula 34, (4-(2-methylquinolin-4-yl)piperazin-1-yl) (1-(4-phenoxyphenylsulfonyl)piperidin-3-yl) methanone]: under setting [3], the inhibition at 5 µM fell in the range of 25 to 50%.

With `Cc1cc(N2CCN(C(=O)C3CCCN(S(=O)(=O)c4ccc(C#N)cc4)C3)CC2)c2ccccc2n1` (stereo not drawn) [Formula 35, 4-(3-(1-(2-methylquinolin-4-yl)piperazine-4-carbonyl)piperidin-1-ylsulfonyl)benzonitrile], the inhibition at 5 µM under setting [2] lay within 50 to 75%. As for `Cc1cc(N2CCN(C(=O)C3CCCN(S(=O)(=O)c4ccc(S(C)(=O)=O)cc4)C3)CC2)c2ccccc2n1` (stereo not drawn) [Formula 36, (4-(2-methylquinolin-4-yl)piperazin-1-yl) (1-(4-(methylsulfonyl)phenylsulfonyl)piperidin-3-yl) methanone], the inhibition at 5 µM under setting [2] was 50 to 75%.

Take `COC(=O)c1ccc(S(=O)(=O)N2CCCC(C(=O)N3CCN(c4cc(C)nc5ccccc45)CC3)C2)cc1` (stereo not drawn) [Formula 37, methyl 4-(3-(1-(2-methylquinolin-4-yl)piperazine-4-carbonyl)piperidin-1-ylsulfonyl)benzoate]: the inhibition at 5 µM under setting [3] fell in the range of 25 to 50%. `Cc1cc(N2CCN(C(=O)C3CCCN(S(=O)(=O)c4ccc(-c5ccccc5)cc4)C3)CC2)c2ccccc2n1` (stereo not drawn) [Formula 38, (4-(2-methylquinolin-4-yl)piperazin-1-yl) (1-(4-phenylbenzenesulfonyl)piperidin-3-yl) methanone]: under setting [1], the inhibition at 5 µM was no less than 75%.

Take `COc1cccc(S(=O)(=O)N2CCCC(C(=O)N3CCN(c4cc(C)nc5ccccc45)CC3)C2)c1` (stereo not drawn) [Formula 39, (1-(3-methoxyphenylsulfonyl)piperidin-3-yl) (4-(2-methylquinolin-4-yl)piperazin-1-yl) methanone]: the inhibition at 5 µM under setting [2] lay within 50 to 75%. For `Cc1cc(N2CCN(C(=O)C3CCCN(S(=O)(=O)c4ccc(Br)cc4)C3)CC2)c2ccccc2n1` (stereo not drawn) [Formula 40, (1-((4-bromophenyl)sulfonyl)piperidin-3-yl) (4-(2-methylquinolin-4-yl)piperazin-1-yl)methanone], the inhibition at 5 µM under setting [3] lay within 25 to 50%.

`O=C(C1CCCN(S(=O)(=O)c2ccccc2)C1)N1CCN(c2ccnc3cc(F)ccc23)CC1` (stereo not drawn) [Formula 41, (4-(7-fluoroquinolin-4-yl)piperazin-1-yl) (1-(phenylsulfonyl)piperidin-3-yl) methanone]: the inhibition at 5 µM under setting [2] lay within 50 to 75%.

As for `O=C(C1CCCN(S(=O)(=O)c2ccc(F)cc2)C1)N1CCN(c2ccnc3cc(F)ccc23)CC1` (stereo not drawn) [Formula 42, (1-((4-fluorophenyl)sulfonyl)piperidin-3-yl) (4-(7-fluoroquinolin-4-yl)piperazin-1-yl) methanone], the inhibition at 5 µM under setting [1] is no less than 75%.

`O=C(C1CCCN(S(=O)(=O)c2ccc(O)cc2)C1)N1CCN(c2ccnc3cc(F)ccc23)CC1` (stereo not drawn) [Formula 43, (4-(7-fluoroquinolin-4-yl)piperazin-1-yl) (1-((4-hydroxyphenyl)sulfonyl)piperidin-3-yl) methanone]: the inhibition at 5 µM under setting [1] was no less than 75%. On to `CC(=O)Nc1ccc(S(=O)(=O)N2CCCC(C(=O)N3CCN(c4ccnc5cc(F)ccc45)CC3)C2)cc1` (stereo not drawn) [Formula 45, N-(4-(3-(1-(7-fluoroquinolin-4-yl)piperazine-4-carbonyl)piperidin-1-ylsulfonyl)phenyl) acetamide], for which the inhibition at 5 µM under setting [1] was no less than 75%. The same measure, in the same setting: to `CC(=O)Nc1ccc(S(=O)(=O)N2CCC[C@@H](C(=O)N3CCN(c4ccnc5cc(F)ccc45)CC3)C2)cc1` [Formula 46, (R)—N-(4-(3-(1-(7-fluoroquinolin-4-yl)piperazine-4-carbonyl)piperidin-1-ylsulfonyl)phenyl) acetamide] belongs no less than 75%; to `CC(=O)Nc1ccc(S(=O)(=O)N2CCC[C@H](C(=O)N3CCN(c4ccnc5cc(F)ccc45)CC3)C2)cc1` [Formula 47, (S)—N-(4-(3-(1-(7-fluoroquinolin-4-yl)piperazine-4-carbonyl)piperidin-1-ylsulfonyl)phenyl) acetamide], no less than 75%; to `O=C(C1CCCN(S(=O)(=O)c2ccc([N+](=O)[O-])cc2)C1)N1CCN(c2ccnc3cc(F)ccc23)CC1` (stereo not drawn) [Formula 50, (4-(7-fluoroquinolin-4-yl)piperazin-1-yl) (1-(4-nitrophenylsulfonyl)piperidin-3-yl) methanone], no less than 75%. For the compound `O=C(C1CCCN(S(=O)(=O)c2cccc([N+](=O)[O-])c2)C1)N1CCN(c2ccnc3cc(F)ccc23)CC1` (stereo not drawn) [Formula 51, (4-(7-fluoroquinolin-4-yl)piperazin-1-yl) (1-(3-nitrophenylsulfonyl)piperidin-3-yl) methanone], the inhibition at 5 µM under setting [1] was no less than 75%. Still for that read-out and setting: the same measure for `CCN(CC)c1ccc(S(=O)(=O)N2CCCC(C(=O)N3CCN(c4ccnc5cc(F)ccc45)CC3)C2)cc1` (stereo not drawn) [Formula 52, (1-(4-(diethylamino)phenylsulfonyl)piperidin-3-yl) (4-(7-fluoroquinolin-4-yl)piperazin-1-yl) methanone]: no less than 75%.

On to `COc1ccc(S(=O)(=O)N2CCCC(C(=O)N3CCN(c4ccnc5cc(F)ccc45)CC3)C2)cc1` (stereo not drawn) [Formula 53, (4-(7-fluoroquinolin-4-yl)piperazin-1-yl) (1-(4-methoxyphenylsulfonyl)piperidin-3-yl) methanone], for which, under setting [1], the inhibition at 5 µM was no less than 75%. Consider `CC(=O)c1ccc(S(=O)(=O)N2CCCC(C(=O)N3CCN(c4ccnc5cc(F)ccc45)CC3)C2)cc1` (stereo not drawn) [Formula 54, 1-(4-(3-(1-(7-fluoroquinolin-4-yl)piperazine-4-carbonyl)piperidin-1-ylsulfonyl)phenyl) ethanone], for which the inhibition at 5 µM under setting [1] is no less than 75%. Still for that read-out and setting: the same measure for `O=C(C1CCCN(S(=O)(=O)c2ccc(-c3ccccc3)cc2)C1)N1CCN(c2ccnc3cc(F)ccc23)CC1` (stereo not drawn) [Formula 55, (4-(7-fluoroquinolin-4-yl)piperazin-1-yl) (1-(4-phenylbenzenesulfonyl)piperidin-3-yl) methanone]: no less than 75%; for `O=C(C1CCCN(S(=O)(=O)c2ccc(Br)cc2)C1)N1CCN(c2ccnc3cc(F)ccc23)CC1` (stereo not drawn) [Formula 56, (1-(4-bromophenylsulfonyl)piperidin-3-yl) (4-(7-fluoroquinolin-4-yl)piperazin-1-yl)methanone]: no less than 75%; for `O=C([C@@H]1CCCN(S(=O)(=O)c2ccc(Br)cc2)C1)N1CCN(c2ccnc3cc(F)ccc23)CC1` [Formula 57, (R)-(1-(4-bromophenylsulfonyl)piperidin-3-yl) (4-(7-fluoroquinolin-4-yl)piperazin-1-yl) methanone]: 0%.
